Reference: US20190038632A1 (BAYER PHARMA AKTIENGESELLSCHAFT, priority 2016, published 2019)
“And” between values parts separate entries of the source, which are not always exact repeats. Equal entries are not always repeated.

Test system: NHL patients
Test: clinical study A: copanlisib therapy in NHL patients, best response and PFS, also by baseline tumor gene expression
Type: in vivo, human
Conditions: for PFS (Independent*) Days / Best Response (Independent*): one line per subject; for PFS (Independent*) Days: censor status in column beside
[1] = mantle cell lymphoma patients (N = 2)

Excerpt: Best response status and progression-free survival (hereinafter referred to as “PFS”) from independent review assessment were used for gene expression analysis.
Bioinformatics and statistical analyses were done for all 24 NHL patients.
A weighted gene expression score (hereinafter referred to as “WGS”) reflecting the overall expression level for each gene set was generated from logistic regression and Cox proportional hazards models to assess the association with response status (best-response-WGS) and PFS (PFS-WGS), respectively.
Both the best-response-WGS as well as the PFS-WGS were in turn used in logistic regression or Cox regression models to assess the association of either WGS with the endpoints. Moreover, the raw best-response WGS was used to compute non-cross validated AUC estimates for responder (CR+PR) and non-responder (SD+PD) classifications.

Q: How did the “HR for PFS” value (CSTB, median gene expression level as cutoff, p=0.07) turn out when COc1c(OCCCN2CCOCC2)ccc2c1N=C(NC(=O)c1cnc(N)nc1)N1CCN=C21 [copanlisib] was run?
A: 3.3 (0.9-12)

Q: What about the “median PFS days” value (CSTB, median gene expression level as cutoff, shorter-PFS group (high expression per text)) of the same compound?
A: 74 days

Q: What about the “HR for PFS” value (MT2A, median gene expression level as cutoff, p=0.30) of the same compound?
A: 1.3 (0.8-2.2)

Q: What about the PFS (NHL patients with low BCR WGS (median cut-off 41.7)) of the same compound?
A: 62 days

Q: What about the “HR for PFS” value (NOP10, median gene expression level as cutoff, p=0.23) of the same compound?
A: 1.9 (0.7-5.4)

Q: What about the “PFS (Independent*) Days” value (diffuse large B-cell lymphoma patients (N = 5)) of the same compound?
A: 56 days and 13 days and 49 days

Q: And the “PFS (Independent*) Days” value (follicular lymphoma patients (N = 10))?
A: 53 days and 74 days and 28 days

Q: What about the “Best Response (Independent*)” value (follicular lymphoma patients (N = 10), data cutoff February 2015) of the same compound?
A: CRu

Q: And the “HR for PFS” value (high vs low BCR WGS, nominal Cox model p<0.0001)?
A: 0.035

Q: And the “HR for PFS” value (high vs low GPR18 expression, nominal Cox model p<0.01)?
A: 0.17

Q: And the “Best Response (Independent*)” value [1]?
A: CRu

Q: What about the “PFS (Independent*) Days” value [1] of the same compound?
A: 7 days

Q: And the “PFS (Independent*) Days” value (trans. indolent lymphoma patients (N = 2))?
A: 16 days and 42 days
